{"source": "patent US4253997A", "about": "“Anti-ovulatory decapeptides” (American Home Products Corporation, priority 1979, dated 1981)", "key": {"ovulation [1]": {"tested_on": "ovulation", "experiment": "Anti-ovulatory activity in proestrus rats (oviducts inspected for ova)", "assay_type": "in vivo, Sprague-Dawley CD rats", "conditions": "single administration at 1200 hours of proestrus", "procedure": "The product of Example 2 was injected subcutaneously, in corn oil, as a single administration at 1200 hours on the day of proestrus (at least 2.5 hours prior to the commencement of the ovulatory LH surge). The rats were sacrificed on the morning of estrus (the day following proestrus) and the oviducts were inspected for the presence of ova under a dissecting microscope. The number of animals ovulating and the percent inhibition were as follows: […]"}, "[2]": {"tested_on": "leuteinizing hormone (LH) release", "conditions": "LH-RH = 100 percent; cited from earlier work"}, "LH-RH": {"tested_on": "LH-RH", "conditions": "in vitro; cited from earlier work"}, "ovulation [3]": {"tested_on": "ovulation", "conditions": "administered at noon of proestrus; cited from earlier work"}}, "data": [{"substance": "D-(5-Oxoprolyl)-D-phenylalanyl-D-3-(1-naphthyl)-alanyl-L-seryl-L-tyrosyl-D- 3-(1-naphthyl)-alanyl-L-leucyl-L-arginyl-L-prolyl-glycine acetate salt [Example 2]", "values": [{"measurement": "number of animals ovulating", "setting": "ovulation [1]; 375 μg s.c. in corn oil", "result": "5/6"}, {"measurement": "percent inhibition of ovulation", "setting": "ovulation [1]; 375 μg s.c. in corn oil", "result": 17, "unit": "%"}, {"measurement": "number of animals ovulating", "setting": "ovulation [1]; 500 μg s.c. in corn oil", "result": "6/20"}, {"measurement": "percent inhibition of ovulation", "setting": "ovulation [1]; 500 μg s.c. in corn oil", "result": 70, "unit": "%"}, {"measurement": "number of animals ovulating", "setting": "ovulation [1]; 1000 μg s.c. in corn oil", "result": "1/14"}, {"measurement": "percent inhibition of ovulation", "setting": "ovulation [1]; 1000 μg s.c. in corn oil", "result": 93, "unit": "%"}]}, {"substance": "Nal(1)^3 -LH-RH", "values": [{"measurement": "potency as LH releasing agent relative to LH-RH", "setting": "[2]", "result": 187.1, "unit": "%"}]}, {"substance": "[D-pGlu^1, D-Phe^2, D-Trp^3,6 ]-LH-RH", "values": [{"measurement": "IDR50 (inhibitory molar dose ratio antagonist/LH-RH)", "setting": "LH-RH", "result": "3/1"}, {"measurement": "effective dose for in vivo inhibition of ovulation", "setting": "ovulation [3]", "result": "20 to 25", "unit": "mg"}]}]}
